Values after ≈ are worked out from the molar mass of the structure shown. Read-outs that look alike come from different tables or passages of the source.
Assays:
A. baumannii A473 [1] = assay: Preliminary MBC without and with sub-inhibitory polymyxin B (Example 4); format: cell-based, Acinetobacter baumannii; conditions: Acinetobacter baumannii, A473, A. baumannii A473, without polymyxin B, read-out: MBC without PB
A. baumannii A473 [2] = assay: MIC without and with sub-inhibitory polymyxin B (Example 4); format: cell-based, Acinetobacter baumannii; conditions: Acinetobacter baumannii, A473, A. baumannii A473, without polymyxin B, read-out: MIC without PB
P. aeruginosa 143-3-03 = assay: MIC, panel of quinolone-resistant strains (CLSI); format: cell-based; conditions: Pseudomonas aeruginosa, 143303; CIP I, POL R
A. baumannii A472 [3] = assay: MIC without and with sub-inhibitory polymyxin B (Example 4); format: cell-based, Acinetobacter baumannii; conditions: for MIC: Acinetobacter baumannii, A472, A. baumannii A472, without polymyxin B, read-out: MIC without PB
A. baumannii A489 [4] = assay: Preliminary MBC without and with sub-inhibitory polymyxin B (Example 4); format: cell-based, Acinetobacter baumannii; conditions: Acinetobacter baumannii, A489, A. baumannii A489, without polymyxin B, read-out: MBC without PB
Klebsiella ssp KPC-3 = assay: MIC, panel of quinolone-resistant strains (CLSI); format: cell-based, Klebsiella spp; conditions: KPC3, CIP R, ESBL
[5] = tested on: Acinetobacter sp. (H064200250); assay: Preliminary MBC without and with sub-inhibitory polymyxin B (Example 4); format: cell-based; conditions: Acinetobacter, without polymyxin B, preliminary MBC, read-out: MBC without PB
How it was run: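 Incubation 18-20 h, 37° C. MBC = lowest conc. with ~90% fewer colonies than positive control (single/no colonies).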

A. baumannii J2 [6] = assay: as above; format: cell-based, Acinetobacter baumannii; conditions: Acinetobacter baumannii, J2, A. baumannii J2, without polymyxin B, preliminary MBC, read-out: MBC without PB
A. baumannii A489 [7] = assay: MIC without and with sub-inhibitory polymyxin B (Example 4); format: cell-based, Acinetobacter baumannii; conditions: Acinetobacter baumannii, A489, A. baumannii A489, without polymyxin B, read-out: MIC without PB
A. baumannii A329 [8] = assay: MIC determination for Acinetobacter strains (Example 3); format: cell-based; conditions: LEV R, CIP R, MRP R, IMP R, AMK R, TET R
Pseudomonas ssp PER-1 = assay: MIC, panel of quinolone-resistant strains (CLSI); format: cell-based, Pseudomonas spp; conditions: PER1, CIP R, ESBL
A. baumannii A401 = assay: MIC without and with sub-inhibitory polymyxin B (Example 4); format: cell-based, Acinetobacter baumannii; conditions: for MIC: Acinetobacter baumannii, A401, A baumannii A 401, without polymyxin B, read-out: MIC without PB
[9] = tested on: Acinetobacter sp. (H064200250); assay: as above; format: cell-based; conditions: Acinetobacter, without polymyxin B
A. baumannii A 401 = assay: MIC determination for Acinetobacter strains (Example 3); format: cell-based; conditions: A401, LEV R, CIP R, AMK R, TET R
E. coli CTX-M-15 = assay: MIC, panel of quinolone-resistant strains (CLSI); format: cell-based; conditions: Escherichia coli, CTXM15; CIP R, ESBL
P. aeruginosa 1388-3-02 = assay: MIC, panel of quinolone-resistant strains (CLSI); format: cell-based; conditions: Pseudomonas aeruginosa, 1388302; CIP R, POL R
A. baumannii J2 [10] = assay: MIC without and with sub-inhibitory polymyxin B (Example 4); format: cell-based, Acinetobacter baumannii; conditions: Acinetobacter baumannii, J2, A. baumannii J2, without polymyxin B, read-out: MIC without PB
A. baumannii A329 [11] = assay: as above; format: cell-based, Acinetobacter baumannii; conditions: Acinetobacter baumannii
A. baumannii A472 [12] = assay: MIC determination for Acinetobacter strains (Example 3); format: cell-based; conditions: LEV R, CIP R, MRP I, IMP I, AMK R, TET R
E. coli 2906 = assay: MIC, panel of quinolone-resistant strains (CLSI); format: cell-based; conditions: Escherichia coli, CIP R
A. baumannii A472 [13] = assay: Preliminary MBC without and with sub-inhibitory polymyxin B (Example 4); format: cell-based, Acinetobacter baumannii; conditions: Acinetobacter baumannii, A472, A. baumannii A472, without polymyxin B, 2nd experiment, read-out: MBC without PB
A. baumannii ATCC 19606 = assay: MIC without and with sub-inhibitory polymyxin B (Example 4); format: cell-based, Acinetobacter baumannii; conditions: Acinetobacter baumannii, ATCC19606, A. baumannii ATCC 19606; without polymyxin B; 1st experiment; read-out: MIC without PB
[14] = tested on: resistant strains of A. baumannii and one strain of Acinetobacter sp.; assay: MIC without and with sub-inhibitory polymyxin B, whole panel / MIC ranges (Example 4; also strains not listed separately); format: cell-based; conditions: Acinetobacter baumannii, without polymyxin B, read-out: MIC without PB
A. baumannii A390 = assay: Preliminary MBC without and with sub-inhibitory polymyxin B (Example 4); format: cell-based, Acinetobacter baumannii; conditions: Acinetobacter baumannii, A390, A. baumannii A390; without polymyxin B; preliminary MBC; 1st experiment; read-out: MBC without PB
[15] = Acinetobacter spp. H064200250 (OXA51), 2nd experiment
[16] = Acinetobacter spp. H064200250, 1st experiment
[17] = Acinetobacter spp. H064200250 (OXA51), 2nd experiment, visual reading, read-out: MIC without PB
[18] = Acinetobacter spp. H064200250, 1st experiment, read-out: MIC without PB
[19] = A329, A. baumannii A329, without polymyxin B, 1st experiment, read-out: MIC without PB

Structure (SMILES) | MBC (A. baumannii A473 [1]; 2nd experiment) [µg/mL] | MIC (A. baumannii A473 [2]; 2nd experiment, visual reading) [µg/mL] | MIC (P. aeruginosa 143-3-03) [µg/mL] | MIC (A. baumannii A472 [3]; 1st experiment) [µg/mL] | MBC (A. baumannii A489 [4]; 2nd experiment) [µg/mL] | MIC (Klebsiella ssp KPC-3) [µg/mL] | MBC [5, 15] [µg/mL] | MBC [5, 16] [µg/mL] | MBC (A. baumannii J2 [6]; 2nd experiment) [µg/mL] | MBC (A. baumannii J2 [6]; 1st experiment) [µg/mL] | MIC (A. baumannii A329 [8]) [µg/mL] | MIC (Pseudomonas ssp PER-1) [µg/mL] | MIC (A. baumannii A401; 1st experiment) [µg/mL] | MIC [9, 17] [µg/mL] | MIC [9, 18] [µg/mL] | MIC (A. baumannii A 401) [µg/mL] | MIC (E. coli CTX-M-15) [µg/mL] | MIC (P. aeruginosa 1388-3-02) [µg/mL] | MIC (A. baumannii J2 [10]; 2nd experiment, visual reading) [µg/mL] | MIC (A. baumannii A329 [11]; [19]) [µg/mL] | further results
Cc1c(-c2cc(Cl)c(N)c(Cl)c2)ccn2c(=O)c(C(=O)O)cc(C3CC3)c12 [Compound 3, 8-(3,5-dichloro-4-amino-phenyl)-1-cyclopropyl-9-methyl-4-oxo-quinolizine-3-carboxylic acid] | 8 (≈ 19.8 µM) | 8 (≈ 19.8 µM) | 4 (≈ 9.92 µM) | 32 (≈ 79.4 µM) | 4 (≈ 9.92 µM) | 8 (≈ 19.8 µM) | 16 (≈ 39.7 µM) | 8 (≈ 19.8 µM) | 32 (≈ 79.4 µM) | 8 (≈ 19.8 µM) | 16 (≈ 39.7 µM) | 32 (≈ 79.4 µM) | 8 (≈ 19.8 µM) | 16 (≈ 39.7 µM) | 8 (≈ 19.8 µM) | 8 (≈ 19.8 µM) | > 32 | 8 (≈ 19.8 µM) | 32 (≈ 79.4 µM) | 16 (≈ 39.7 µM) | MBC (A. baumannii A473 [1]; 1st experiment): 4 µg/mL (≈ 9.92 µM); MIC (A. baumannii A473 [2]; 1st experiment): 4 µg/mL (≈ 9.92 µM); MIC ratio without/with polymyxin B (A. baumannii A472 [3]; A. baumannii A472, ratio MIC without PB to MIC + PB, PB […], 2nd experiment): ≥ 1020 µg/mL; MBC (A. baumannii A489 [4]; 1st experiment): 2 µg/mL (≈ 4.96 µM); MIC (A. baumannii A489 [7]; 1st experiment): 4 µg/mL (≈ 9.92 µM); MIC (A. baumannii A489 [7]; 2nd experiment, visual reading): 4 µg/mL (≈ 9.92 µM); MIC ratio without/with polymyxin B (A. baumannii A401; A baumannii A 401, ratio MIC without PB to MIC + PB, PB 0.06 μg/ml, 2nd experiment): 128 µg/mL; MIC (A. baumannii A401; 2nd experiment, visual reading): 16 µg/mL (≈ 39.7 µM); MIC (A. baumannii J2 [10]; 1st experiment): 8 µg/mL (≈ 19.8 µM); MIC (A. baumannii A329 [11]; A329, A. baumannii A329, without polymyxin B, 2nd experiment, visual reading, read-out: MIC without PB): 16 µg/mL (≈ 39.7 µM); MIC (A. baumannii A329 [11]; A329, read-out: MIC +0.06 μg/ml PB, read with alamar blue, A. baumannii A329, +0.06 μg/ml polymyxin B, 2nd experiment, MIC read with alamar blue): 1 µg/mL; MIC (A. baumannii A472 [12]): 32 µg/mL (≈ 79.4 µM); MIC (E. coli 2906): > 32 µg/mL
Cc1c(-c2ccc(N)cc2)ccn2c(=O)c(C(=O)O)cc(C3CC3)c12 [Compound 8, 8-(4-amino-phenyl)-1-cyclopropyl-9-methyl-4-oxo-quinolizine-3-carboxylic acid] | 4 (≈ 12 µM) | 4 (≈ 12 µM) | 2 (≈ 5.98 µM) | 4 (≈ 12 µM) | 8 (≈ 23.9 µM) | 16 (≈ 47.9 µM) | 4 (≈ 12 µM) | 4 (≈ 12 µM) | 4 (≈ 12 µM) | 8 (≈ 23.9 µM) | 16 (≈ 47.9 µM) | 16 (≈ 47.9 µM) | 32 (≈ 95.7 µM) | 4 (≈ 12 µM) | 2 (≈ 5.98 µM) | 32 (≈ 95.7 µM) | > 32 | 8 (≈ 23.9 µM) | 4 (≈ 12 µM) | 16 (≈ 47.9 µM) | MIC (A. baumannii A472 [3]; 2nd experiment, visual reading): 4 µg/mL (≈ 12 µM); MBC (A. baumannii A472 [13]): 4 µg/mL (≈ 12 µM); MIC ([9]; Acinetobacter spp. H064200250 (OXA51), 2nd experiment, MIC read with alamar blue, read-out: MIC without PB, read with alamar blue): 8 µg/mL (≈ 23.9 µM); MIC (A. baumannii ATCC 19606): 1 µg/mL (≈ 2.99 µM); MIC ([14]; A. baumannii A14, 1st experiment): 32 µg/mL (≈ 95.7 µM); MIC ([14]; NCTC13301, A. baumannii NCTC 13301, 1st experiment): 32 µg/mL (≈ 95.7 µM); MIC ([14]; NCTC13301, A. baumannii NCTC 13301, 2nd experiment, visual reading): 16 µg/mL (≈ 47.9 µM); MIC (A. baumannii A472 [12]): 4 µg/mL (≈ 12 µM); MIC (E. coli 2906): > 32 µg/mL; MBC (A. baumannii A390): 8 µg/mL (≈ 23.9 µM)

Source: patent US10155021B2, “Antimicrobial 4-oxoquinolizines” (Emergent Product Development Gaithersburg Inc., priority 2011, dated 2018)
